Test results taken from PMC6156508, “GA-Hecate antiviral properties on HCV whole cycle represent a new antiviral class and open the door for the development of broad spectrum antivirals” (Scientific Reports, 2018).
Where a SMILES comes first, the peptide text is derived from it. The star is where a group is joined. Galloyl = O=C(c1cc(O)c(O)c(O)c1)*

How the values were obtained:
[1] = tested on: J6/JFH-1-infected Huh-7.5 cells; assay: Apoptosis analysis (active caspase-3 staining); format: cell-based, human; details: 1.25-40 μM; 48 and 72 h p.t.
Experimental: (§1) Apoptosis and Necrosis analysis
(§2) The ability of GA-Hecate inducing cell death by necrosis and apoptosis was assessed in 48 and 72h post-treatment (p.t) at concentrations: 1.25; 2.5; 5; 10; 20 and 40 μM. For necrosis evaluation, cells were stained using Propidium Iodide at […], which was incubated with the cells 15 minutes prior fixation. Subsequently, cells were fixed using paraformaldehyde 4% in PBS (PFA 4%) for 15 minutes and nuclei stained using DAPI 1 μg/mL for 5 minutes. For apoptosis evaluation, cells were fixed using PFA 4% during 15 minutes, permeabilized using Triton X- 100 (Sigma) 0.1% in PBS and stained using anti-Active Caspase 3 antibody (host: Rabbit) (1:200 in BSA 1% in PBS) (Abcam 13847) for 2h. Then cells were rinsed using PBS and stained using anti-rabbit AlexaFluor 594 (1:500 in BSA 1% PBS) (Thermo Scientific A21207) during 2h. Nuclei were stained using DAPI for 5 minutes. For both assays, cells were counted in 5 randomly chosen fields in duplicate. […]
Figure S2. Cell death mechanisms triggered by GA-Hecate 48h post-treatment in J6/JFH-1- infected Huh-7.5 cells. A) Apoptosis activation triggered by GA-Hecate was measured by Active Caspase-3 in treated cells. Caspase is artificially represented in green and nuclei were stained using DAPI 1µg/mL (blue). B) Necrosis assessment. […]

HCV JFH1 3' UTR dsRNA = assay: dsRNA intercalation assay (agarose gel); format: binding, hepatitis C virus; details: peptide 20 μM; 45 min; 1% agarose gel
From the text: scans, with a resolution of 0.2 nm. To investigate the conformational changes by the membrane environments, the data were obtained in vesicles containing POPC:POPS (9:1), and POPC:Cholesterol (9:1). CD spectra were typically recorded as an average of the eight scans that were obtained in millidegrees and converted to molar ellipticity [θ] in deg·cm2·dmol-1. The peptide concentration was 10 μmol·L-1, and the proportion of lipid/peptide was 100 (L/P = 100).
Effect of peptides on dsRNA intercalation assay
To assess GA-Hecate’s dsRNA intercalation capacity, we performed an assay adapted from Krawczyk et al. 2009. Initially, a PCR reaction was made and the HCV JFH1 3’ untranslated region (UTR) (accession no. AB047639) was amplified by specific primers flanked by a T7 promoter sequence (F
273 bp, was purified using a ZymocleanTM Gel DNA recovery Kit (Zymo Research) and used as a template for in vitro dsRNA production using a T7 Ribomax Express kit (Promega). […] GA-Hecate, Hecate and Lys-Hecate (20 μM) were incubated with […] of dsRNA, for 45 min, and subsequently analysed in 1% agarose gel 1X TAE stained with ethidium bromide. […]
In order to guarantee that the virus inhibition effect was not related exclusively to cell death trigger, all concentrations were evaluated to necrosis and apoptosis induction. […]

[2] = tested on: HCVcc particles released from treated cells, naïve Huh-7.5 cells; assay: Infectivity assay of released particles (focus forming units); format: cell-based, hepatitis C virus
Experimental: Figure 6 GA-Hecate effect on HCV Release and infectivity. (A) HCV-infected Huh-7.5 cells were treated for 24 h with GA-Hecate. RNA was isolated and summited to qPCR for HCV 5′ UTR. Intracellular HCV expression was normalized by GAPDH, and extracellular HCV expression was calculated by absolute quantification. The difference between the intra and extracellular RNA expression represents the HCV release. Bars represent triplicate samples of three independent assays. Naringenin (200 μM) was used as a positive control of HCV release inhibition and water was a negative control of HCV release inhibition. ^aP < 0.001 vs Control (−), intracellular. ^bP < 0.001 vs Control (−), extracellular. F = 22.58, df (row factor) = 4. (B) Infectivity. HCV-infected Huh-7.5 cells were treated for 24 h with GA-Hecate, and then the supernatant was collected and used to infect naïve Huh-7.5 cells. The capacity of HCVcc particles to generate a new infection after GA-Hecate treatment is represented by the bars. […]
To assess the effect of GA-Hecate on HCV virion infectivity, a similar process to release/assembly was done and the supernatant (extracellular content) was collected and used to infect naïve Huh-7.5 cells. HCV infectivity was evaluated by the focus forming units assay, following an indirect immunofluorescence (IFI) assay for HCV NS5A as previously described by Batista et al.[35].

[3] = tested on: J6/JFH-1-infected Huh-7.5 cells; assay: Necrosis analysis (propidium iodide staining); format: cell-based, human
Experimental: as §1, §2
Figure S2. Cell death mechanisms triggered by GA-Hecate 48h post-treatment in […]
J6/JFH-1- infected Huh-7.5 cells. […]
B) Necrosis assessment.
Necrotic cells were stained using Propidium iodide […], which is able to cross only damaged membranes and reaches the nucleus. PI is represented in red and cell nuclei were counterstained using DAPI (blue). Bars represents the average of 5 fields in duplicate. Ns: non statistically significant. *** Pvalue< 0.001vs 0.00 µM […]
Figure S3. Cell death mechanisms triggered by GA-Hecate 72h post-treatment in […]

**Q.** What does the source list for `CC(C)C[C@H](NC(=O)[C@H](C)NC(=O)[C@H](CCCCN)NC(=O)[C@H](CCCCN)NC(=O)[C@H](CC(C)C)NC(=O)[C@H](C)NC(=O)[C@H](CCCCN)NC(=O)[C@H](CCCCN)NC(=O)[C@H](CC(C)C)NC(=O)[C@H](CCCCN)NC(=O)[C@H](CCCCN)NC(=O)[C@H](CC(C)C)NC(=O)[C@H](C)NC(=O)[C@H](CCCCN)NC(=O)[C@H](CCCCN)NC(=O)[C@H](CC(C)C)NC(=O)[C@H](C)NC(=O)[C@H](CCCCN)NC(=O)[C@H](CC(C)C)NC(=O)[C@H](C)NC(=O)[C@H](CC(C)C)NC(=O)[C@H](C)NC(=O)[C@H](Cc1ccccc1)NC(=O)c1cc(O)c(O)c(O)c1)C(N)=O` [GA-Hecate] (Galloyl-FALALKALKKALKKLKKALKKAL-NH2)?
**A.** apoptosis induction (active caspase-3) [1]: no significate apoptosis induction in any tested time point or concentration; intercalation in HCV dsRNA (HCV JFH1 3' UTR dsRNA): able to intercalate in HCV dsRNA; infection inhibition by released particles (infectivity) ([2]; 20 μM, supernatant of cells treated 24 h on naïve Huh-7.5): approximately 100%; share of released HCV able to generate a new infection ([2]; supernatant of GA-Hecate-treated cells): less than 1%; necrosis ([3]; 20 μM, over the time (48 and 72 h)): about 20%; necrosis ([3]; 40 μM, 48h p.t., propidium iodide): 50%; necrosis ([3]; 40 μM, 72h p.t., propidium iodide): 10%
